Here are results for 22 compounds from PMC4691061, “Repositioning of Thiourea-Containing Drugs as Tyrosinase Inhibitors” (International Journal of Molecular Sciences, 2015).

Read-outs that look alike come from different tables or passages of the source.

For one data set, the target named is T1, mammalian tyrosinase (Mus musculus, UniProt P11344).
T1 construct: host or cells: B16F10 murine melanoma cells (lysate supernatant)
T1 sequence (P11344 19-533): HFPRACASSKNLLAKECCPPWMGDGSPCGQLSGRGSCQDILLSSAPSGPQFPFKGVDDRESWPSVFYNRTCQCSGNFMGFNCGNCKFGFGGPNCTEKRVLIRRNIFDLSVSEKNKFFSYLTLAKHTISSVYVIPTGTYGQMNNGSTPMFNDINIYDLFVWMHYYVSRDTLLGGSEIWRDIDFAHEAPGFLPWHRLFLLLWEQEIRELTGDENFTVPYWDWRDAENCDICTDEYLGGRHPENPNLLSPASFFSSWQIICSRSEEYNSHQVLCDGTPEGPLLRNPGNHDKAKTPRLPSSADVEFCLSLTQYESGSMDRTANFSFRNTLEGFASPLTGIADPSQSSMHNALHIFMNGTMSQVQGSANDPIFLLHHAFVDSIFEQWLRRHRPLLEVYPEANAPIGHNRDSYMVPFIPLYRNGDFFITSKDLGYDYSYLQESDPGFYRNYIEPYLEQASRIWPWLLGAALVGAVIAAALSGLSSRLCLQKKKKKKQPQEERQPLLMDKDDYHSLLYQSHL
As to the kind of experiment: Tyrosinase enzyme assay with B16F10 cell lysates. The conditions noted are these: for Cell Lysate (%): B16F10 cell lysates, DOPA substrate, absence of inhibitor = 100%; for inhibition of mammalian tyrosinase (in words): cell extracts of B16F10 cells. The class given is biochemical, murine.

The target in data set [1] is T2, mushroom tyrosinase (Agaricus bisporus, UniProt C7FF04). The data set can be described thus: Mushroom tyrosinase enzyme activity inhibition assay. The class given is biochemical. The conditions noted are these: for inhibition of tyrosinase (in words): at 300 μM; for inhibition of tyrosinase enzyme activity (in words): concentration-dependent profiles, urea, thiourea, selenourea compared without DMSO; for LE (ligand efficiency): 1.4 × (−log10IC50)/N, N = number of non-hydrogen atoms.

For data set [2], the system named is B16F10 cells. The data set can be described thus: MTT cell viability assay. The conditions noted are these: for MTT (%): 20 µM, mean ± SD, triplicate. (In general: Formazan colour is commonly taken as a measure of viable cells.)
For another data set, the system named is tyrosinase. The conditions noted are these: cited from earlier work.
Data set [3] concerns the target T2, mushroom tyrosinase. As to the kind of experiment: Kinetics of enzyme inhibition (Michaelis-Menten, nonlinear fitting, F-statistics). The class given is biochemical. The conditions noted are these: for Mechanism: model selected by F-statistics among competitive, uncompetitive, non-competitive, mixed.
Data set [4] relates to B16F10 cells. As to the kind of experiment: Melanin content assay (IBMX-stimulated). The class given is cell-based, murine. The following applies: for activity at 20 µM: Mus musculus.
Where [5] appears, read: mushroom tyrosinase, 675 μM L-tyrosine as substrate, 5% DMSO, read-out: IC50.
The mark [6] stands for this setting: Ki for competitive, Kic for non-competitive model, nonlinear data fitting, read-out: Ki or Kic.
Setting [7] is: B16-F10, 20 µM, B16F10 cells, IBMX 100 μM, absence of inhibitor = 100%, read-out: Melanin Content (%).
[8] abbreviates: BindingDB-registered value, read-out: IC50 of closest known inhibitor.
[9] abbreviates: 20 μM, B16F10 cells, IBMX 100 μM.

T2 sequence (C7FF04 1-392): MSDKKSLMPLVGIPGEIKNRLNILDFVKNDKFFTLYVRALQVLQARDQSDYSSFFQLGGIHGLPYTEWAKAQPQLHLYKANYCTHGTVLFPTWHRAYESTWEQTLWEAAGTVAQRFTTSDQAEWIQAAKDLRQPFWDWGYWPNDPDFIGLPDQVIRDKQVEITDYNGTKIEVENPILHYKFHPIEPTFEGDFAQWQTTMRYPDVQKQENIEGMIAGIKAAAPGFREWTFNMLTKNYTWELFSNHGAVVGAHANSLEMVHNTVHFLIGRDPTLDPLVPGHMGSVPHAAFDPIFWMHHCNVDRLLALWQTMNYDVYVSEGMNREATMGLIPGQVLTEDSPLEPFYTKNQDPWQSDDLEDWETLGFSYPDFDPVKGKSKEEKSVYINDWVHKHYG

As a reminder, the IC50 is the concentration at which inhibition is half-maximal. Broadly, the Ki is the dissociation constant of the complex between target and ligand, obtained from inhibition or displacement. On to `Cn1cc[nH]c1=S` [compound 5, Methimazole], for which the “Cell Lysate (%)” value on mammalian tyrosinase was 93 ± 10%. Besides, at mammalian tyrosinase, the “inhibition of mammalian tyrosinase (in words)” value is given as “limited”. The 50% inhibitory concentration (IC50) at mushroom tyrosinase [1] (setting [5]) was determined as 94 µM. Further, the “MTT (%)” value with B16F10 cells [2] is 100 ± 9%. For the same compound, in the data set with tyrosinase, the “inhibition mechanism (reported)” value is “mixed inhibitor”. Further, at mushroom tyrosinase [3] (setting [6]), the Ki came to 73 µM. Further, the Mechanism entry was “Non-competitive” on mushroom tyrosinase [3] and “non-competitive inhibitor” at mushroom tyrosinase [3] (listed as methimazole). Besides, the activity at 20 µM with B16F10 cells [4] (setting [7]) was 104 ± 12%.
Take `CN(C)C(=S)N(C)C` [tetramethylthiourea]: on mushroom tyrosinase [1], the “inhibition of tyrosinase (in words)” value is reported as “hardly inhibited tyrosinase” and the “inhibition of tyrosinase enzyme activity (in words)” value is recorded as “much weaker than thiourea”.
Regarding `NNC(N)=S` [thiosemicarbazide], the “inhibition of tyrosinase enzyme activity (in words)” value on mushroom tyrosinase [1] is on record as “much weaker than thiourea”.
For `CNC(N)=S` [monomethylthiourea], the “inhibition of tyrosinase enzyme activity (in words)” value against mushroom tyrosinase [1] is recorded as “much weaker than thiourea”.
With `CC(=O)Nc1ccc(/C=N/NC(N)=S)cc1` [compound 3, Thioacetazone], at mammalian tyrosinase, the “Cell Lysate (%)” value was determined as 74 ± 7% and the “inhibition of mammalian tyrosinase (in words)” value was “significantly inhibited the function of tyrosinase”. For the same compound, at mushroom tyrosinase [1], it took 14 µM to reach half-maximal inhibition (IC50) and the “LE (ligand efficiency)” value amounted to 0.43. In the data set with B16F10 cells [2], the “MTT (%)” value was found to be 95 ± 15%. On mushroom tyrosinase [3], the affinity corresponds to a Ki of 18 µM and the Mechanism result is listed as “Non-competitive”. In addition, the activity at 20 µM in the data set on B16F10 cells [4] (setting [7]) came to 102 ± 10%.
On to `NC(N)=O` [urea], for which, at mushroom tyrosinase [1], the “inhibition of tyrosinase enzyme activity (in words)” value is listed as “no effect on activity”.
With `NC(=S)NN=Cc1ccc(F)cc1` [C00010, 4-fluorobenzaldehyde thiosemicarbazone], the IC50 at tyrosinase (setting [8]) is 11 µM.
With `O=c1cc(CO)occ1O` [compound 2, Kojic acid], the “MTT (%)” value with B16F10 cells [2] is 114 ± 10%. Moreover, in the data set on tyrosinase, the “inhibition mechanism (reported)” value is “competitive inhibitors”. For the same compound, the “decrease of melanin content” value in the data set with B16F10 cells [4] (setting [9]) is reported as below 5%. The activity at 20 µM with B16F10 cells [4] (setting [7]) stood at 108 ± 11%.
On to `NC(N)=S` [thiourea], for which the “inhibition of tyrosinase enzyme activity (in words)” value against mushroom tyrosinase [1] is listed as “decreased tyrosinase enzyme activity in a concentration dependent manner”.
In the case of `CCOC(=O)n1ccn(C)c1=S` [compound 6, Carbimazole], the “inhibition of tyrosinase enzyme activity (in words)” value at mushroom tyrosinase [1] is on record as “did not inhibit tyrosinase”. The IC50 on mushroom tyrosinase [1] (setting [5]) is above 2000 µM.
On to `NC(=S)Nc1ccccc1` [compound 1, Phenylthiourea], for which the “Cell Lysate (%)” value at mammalian tyrosinase turned out to be 5 ± 1%. Further, the “MTT (%)” value with B16F10 cells [2] is 113 ± 10%. Further, in the data set with tyrosinase, the “inhibition mechanism (reported)” value is recorded as “competitive inhibitors”. The Mechanism entry on mushroom tyrosinase [3] is listed as “Competitive”; at mushroom tyrosinase [3] (listed as PTU) it was “competitive inhibitors”. Besides, the “decrease of melanin content” value in the data set on B16F10 cells [4] (setting [9]) was found to be 40%. In addition, the activity at 20 µM in the data set on B16F10 cells [4] (B16-F10, read-out: Melanin Content (%)) turned out to be 59 ± 7%.
`N=C(N)[SeH]` [selenourea]: the “inhibition of tyrosinase enzyme activity (in words)” value against mushroom tyrosinase [1] was “no effect on activity”.
In the case of `O=c1cc[nH]c(=S)[nH]1` [compound 7, Thiouracil], at mammalian tyrosinase, the “Cell Lysate (%)” value was determined as 79 ± 9% and the “inhibition of mammalian tyrosinase (in words)” value is on record as “significantly inhibited the function of tyrosinase”. Besides, on mushroom tyrosinase [1], the IC50 turned out to be 215 µM and the “LE (ligand efficiency)” value was 0.64. The “MTT (%)” value in the data set with B16F10 cells [2] is on record as 99 ± 10%. Moreover, the Mechanism result on mushroom tyrosinase [3] is recorded as “Non-competitive”. Besides, in the data set with B16F10 cells [4] (setting [7]), the activity at 20 µM came out at 106 ± 14%.
In the case of `Nn1c(-c2ccncc2)n[nH]c1=S` [C00012], at tyrosinase (BindingDB-registered value, column headed IC50, footnote says Ki, read-out: Ki of closest known inhibitor), the Ki is 1 µM.
As for `CCCc1cc(=O)[nH]c(=S)[nH]1` [compound 9, Propylthiouracil], on mammalian tyrosinase, the “Cell Lysate (%)” value is on record as 77 ± 9% and the “inhibition of mammalian tyrosinase (in words)” value is on record as “significantly inhibited the function of tyrosinase”. This compound returned a concentration for half-maximal inhibition (IC50) on mushroom tyrosinase [1] of 375 µM. For the same compound, the “MTT (%)” value in the data set on B16F10 cells [2] came out at 102 ± 12%. On mushroom tyrosinase [3], the Ki stood at 196 µM and the Mechanism result is on record as “Non-competitive”. For the same compound, the activity at 20 µM with B16F10 cells [4] (setting [7]) was 102 ± 10%.
As for `N=C(N)NN=C1C=CC(=NNC(N)=S)C=C1` [compound 4, Ambazone], at mammalian tyrosinase, the “Cell Lysate (%)” value was 87 ± 9% and the “inhibition of mammalian tyrosinase (in words)” value is given as “significantly inhibited the function of tyrosinase”. At mushroom tyrosinase [1], the IC50 was 15 µM and the “LE (ligand efficiency)” value was determined as 0.42. In the data set with B16F10 cells [2], the “MTT (%)” value amounted to 95 ± 12%. In the data set on B16F10 cells [2] (up to 20 μM), the “cytotoxicity (in words)” value was “without causing cellular toxicity”. On mushroom tyrosinase [3], the affinity, expressed as Ki, was 9 µM and the Mechanism entry is given as “Non-competitive”. The “effect on melanin content (in words)” value in the data set on B16F10 cells [4] (20 μM, B16F10 cells) is reported as “decreased melanin content”. In the data set with B16F10 cells [4] (setting [9]), the “decrease of melanin content” value is on record as 20%. Besides, the activity at 20 µM in the data set on B16F10 cells [4] (setting [7]) is 80 ± 11%.
Consider `Cc1cc(=O)[nH]c(=S)[nH]1` [compound 8, Methylthiouracil], for which, on mammalian tyrosinase, the “Cell Lysate (%)” value is recorded as 78 ± 10% and the “inhibition of mammalian tyrosinase (in words)” value is reported as “significantly inhibited the function of tyrosinase”. Moreover, the “LE (ligand efficiency)” value on mushroom tyrosinase [1] amounted to 0.56. The IC50 on mushroom tyrosinase [1] (setting [5]) stood at 266 µM. The “MTT (%)” value with B16F10 cells [2] is 108 ± 10%. For the same compound, the Ki at mushroom tyrosinase [3] (setting [6]) worked out at 170 µM. In addition, the Mechanism result on mushroom tyrosinase [3] was “Non-competitive”. In addition, the activity at 20 µM in the data set with B16F10 cells [4] (setting [7]) was found to be 102 ± 14%.
For the compound `CCCCOCCOc1ccc(Cc2c(O)[nH]c(=S)[nH]c2=O)cc1` [C00014], at tyrosinase (setting [8]), the IC50 was 179 µM.
Regarding `NC(=S)NN=C1CCCC1` [C00011, cyclopentanone thiosemicarbazone], the IC50 on tyrosinase (setting [8]) is 0.17 µM.
As to `CNC(=S)NC` [dimethylthiourea], at mushroom tyrosinase [1], the “inhibition of tyrosinase (in words)” value is given as “hardly inhibited tyrosinase” and the “inhibition of tyrosinase enzyme activity (in words)” value is recorded as “much weaker than thiourea”.
On to `O=c1[nH]c(=S)[nH]c(O)c1Cc1ccc(O)cc1` [C00013], for which the IC50 at tyrosinase (setting [8]) is 70 µM; on tyrosinase (known tyrosinase inhibitor, read-out: IC50) it was 70 µM.
Regarding `CNC(=S)N(C)C` [trimethylthiourea], at mushroom tyrosinase [1], the “inhibition of tyrosinase (in words)” value was “hardly inhibited tyrosinase” and the “inhibition of tyrosinase enzyme activity (in words)” value is “much weaker than thiourea”.
